Data from US20120129843A1, “PYRIDYL-THIAZOLYL INHIBITORS OF PRO-MATRIX METALLOPROTEINASE ACTIVATION” (priority 2010, published 2012).

Experiments:
[1] = biological target: T1, MMP9 mediated gelatinase activity in the livers (Rattus norvegicus, UniProt P50282); assay: In situ zymography of gelatinase activity in livers of SCW-induced rats dosed with compound; assay type: in vivo; conditions: for Intensity, Mean / Intensity, Rat 1 / Intensity, Rat 2 / Intensity, Rat 3: SCW, Day 25-28
T1 construct: from tissue; host or cells: frozen liver sections of female Lewis rats
T1 sequence (P50282 20-708): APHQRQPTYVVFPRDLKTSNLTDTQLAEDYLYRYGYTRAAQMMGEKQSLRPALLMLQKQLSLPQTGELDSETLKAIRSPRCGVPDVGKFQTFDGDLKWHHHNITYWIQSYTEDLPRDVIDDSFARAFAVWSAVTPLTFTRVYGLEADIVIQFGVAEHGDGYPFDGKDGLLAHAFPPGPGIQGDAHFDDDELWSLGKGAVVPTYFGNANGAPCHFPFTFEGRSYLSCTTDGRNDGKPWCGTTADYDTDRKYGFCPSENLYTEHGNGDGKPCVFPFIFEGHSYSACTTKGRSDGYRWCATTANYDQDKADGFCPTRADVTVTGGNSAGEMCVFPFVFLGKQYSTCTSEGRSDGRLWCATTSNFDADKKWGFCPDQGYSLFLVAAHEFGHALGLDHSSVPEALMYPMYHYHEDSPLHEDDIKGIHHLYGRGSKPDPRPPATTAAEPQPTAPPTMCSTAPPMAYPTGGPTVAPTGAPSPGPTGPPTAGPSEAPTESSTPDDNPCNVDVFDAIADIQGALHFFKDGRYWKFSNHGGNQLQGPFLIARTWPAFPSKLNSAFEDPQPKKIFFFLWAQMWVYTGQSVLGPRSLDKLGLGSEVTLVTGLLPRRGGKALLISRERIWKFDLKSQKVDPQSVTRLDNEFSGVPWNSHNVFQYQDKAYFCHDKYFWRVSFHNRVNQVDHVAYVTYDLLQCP
Excerpt: Compound-α Reduced MMP9 Mediated Gelatinase Activity in the Livers of Rats with SCW Arthritis In situ zymography provides an alternative approach to assess active MMP9 in tissues (Frederiks). Tissue sections are overlain with fluorescene-conjugated gelatin wherein the conjugation is sufficiently dense to cause the fluorescene to be dye-quenched (DQ). Proteolytic degradation of the DQ-gelatin releases the fluorescene from the quenching effect giving rise to bright green fluorescence at the site of degradation. Because in situ zymography requires the use of frozen sections, calcified tissues are problematic. However, an additional feature of the SCW arthritis model is the development of hepatic granulomatous disease (J Immunol; 1986; 137:2199-2209), and MMP9 reportedly plays a role in macrophage recruitment in the granulomas response to mycobacteria (Infect Immun; 2006; 74:6135-6144). Consequently, granulomatous livers from SCW-treated rats were assessed for active MMP9 by in situ zymography.
As described above, Female Lewis (LEW/N) rats, 5-6 weeks of age (80-100 g) were injected (i.p.) with saline or SCW PG-PS. On day 28, when the granulomatous response was well established, animals were sacrificed and livers were frozen in OCT cryo-sectioning medium and 10 μm sections were cut on a Cryome HM 500 M cryotome and mounted on glass microscope slides. Sections were air dried briefly. MMP9 was confirmed as the source of the gelatinase activity in the liver by treating liver sections with monoclonal antibodies directed against the active site of the two major gelatinases MMP9 and MMP2. Liver sections overlain with 50 μL of 100 μg/mL neutralizing mouse monoclonal antibodies directed against MMP9 (Calbiochem, clone 6-6B), or MMP2 (Millipore, clone CA-4001), or with PBS for 1 hr at room temperature. Tissues were rinsed once with PBS, blotted, and briefly air dried and then overlain with DQ-gelatin (Invitrogen) dissolved to 1 mg/mL in deionized water and then diluted 1:10 in 1% wt/vol low gelling point agarose type VII (Sigma) in PBS. The sections were covered with coverslips, incubated in the dark at room temperature for 20 min, and imaged on an Olympus IX80 inverted microscope fitted with fluorescence optics, using SlideBook™ imaging software (Intelligent Imaging Innovations, Inc., Philadelphia, Pa.; version 5.0). Fluorescence intensity was determined (Table 8). When compared to a saline-treated rat, gelatinase activity was abundantly expressed in granulomatous liver sections obtained from a rat with SCW arthritis.
Next, liver in situ zymography was used to assess the relative presence of active MMP9 in rats dosed with vehicle vs. Compound-α. Female Lewis (LEW/N) rats, 5-6 weeks of age (80-100 g) were injected (i.p.) with saline or SCW PG-PS. Commencing on day 25, randomized groups of rats (n=3 rats/group) received vehicle or 20 or 50 mg/kg Compound-α BID by oral gavage. Vehicle consisted of an aqueous mixture containing 2% (v:v) N-methylpyrrolidone, 5% (v:v) glycerine, and 20% (w:v) captisol. Treatment continued daily through the morning of day 28. Four hrs after the AM dose on day 28, rats were sacrificed and livers assessed for active MMP9 by in situ zymography (Table 9). Gelatinase activity was increased markedly in SCW-induced rats, but activity was reduced by approximately 80% in animals treated with 50 mg/kg Compound-α.

[2] = test system: rats with SCW-induced arthritis; assay: Efficacy in rats with SCW-induced arthritis (ankle thickness, clinical score); assay type: in vivo, rat; conditions: for Clinical Scores (0-8), Day 18 (mean): Day 18, start of treatment; for Clinical Scores (0-8), Day 26 (mean): Day 18-26
Excerpt: A polyarthritis can be induced in female Lewis rats following i.p. administration of streptococcal cell wall (SCW) proteoglycan-polysaccharides (PG-PS) (J Exp Med 1977; 146:1585-1602). The model has an acute phase (days 3-7) that is complement and neutrophil-dependent and that resolves. A chronic erosive phase begins at about day ten and is dependent on the development of specific T cell immunity to the PG-GS, which resists digestion and remains present in synovial macrophages for months. Like rheumatoid arthritis, SCW-induced arthritis is reduced by TNF inhibitors, and the dependence of SCW-induced arthritis on macrophages (Rheumatology; 2001; 40:978-987) and the strong association of rheumatoid arthritis severity with synovial-tissue macrophage counts (Ann Rheum Dis; 2005; 64:834-838) makes SCW-arthritis an attractive model for testing potential therapeutic agents. SCW PG-PS 10S (Beckton Dickinson Cat#210866) suspended in saline was vortexed for 30 seconds and sonicated for 3 min with a probe type sonicator prior to injection. Female Lewis (LEW/N) rats, 5-6 weeks of age (80-100 g) were injected (i.p.) with SCW PG-PS (15 μg of rhamnose/gram BW) in the lower left quadrant of the abdomen using a 1 mL syringe fitted with a 23-gauge needle. Control (disease-free) rats were treated in a similar manner with sterile saline. Control rats were sacrificed on day 5 and groups of SCW-injected rats were sacrificed on day 5 when acute inflammation was maximal or on day 18 when chronic inflammation was established.
To induce arthritis, Female Lewis (LEW/N) rats, 5-6 weeks of age (80-100 g) were injected (i.p.) with SCW PG-PS as described above. Eighteen days later, arthritis was well established. Calipers were used to measure the width (anterior to posterior surface) of the left and right hind ankles of each rat. Each ankle was measured 3 times and averaged, and treatment groups were randomized based on ankle thickness (Table 6). Commencing on day 18, randomized groups of arthritic rats (n=5 rats/group) received vehicle or 5, 20, or 50 mg/kg Compound-α BID by oral gavage. Vehicle consisted of an aqueous mixture containing 2% (v:v) N-methylpyrrolidone, 5% (v:v) glycerine, and 20% (w:v) captisol. Treatment continued daily through the morning of day 26.
By day 18 mean ankle thickness was increased an average of >4.4 mm compared to disease free rats. Rats treated with vehicle alone continued to gradually develop a more severe arthritis based on ankle thickness measurements over the eight-day treatment period (Table 6). […] By day 26, the disease associated increase in ankle thickness had been reduced 27, 37, and 46 percent by 5, 20, and 50 mg/kg Compound-α, respectively.
Hind paw inflammation clinical scores were assigned based on swelling and erythema.

Cc1nc(C)c(-c2csc(Nc3cc(S(N)(=O)=O)ccc3OC(C)C)n2)s1 [Compound-α, 3-(2′,4′-Dimethyl-[4,5′]bithiazolyl-2-ylamino)-4-isopropoxy-benzenesulfonamide.HBr] was tested, and the “reduction of liver gelatinase activity” value ([1]; 50 mg/kg, SCW-induced rats) was “approximately 80%”, the “Intensity, Mean” value ([1]; 20 mg/kg BID oral) was 55.2 RLU × 10^6 and the “Intensity, Rat 1” value ([1]; 20 mg/kg BID oral) was 43.0 RLU × 10^6. For the same compound, the “Intensity, Rat 2” value ([1]; 20 mg/kg BID oral) was 69.0 RLU × 10^6, the “Intensity, Rat 3” value ([1]; 20 mg/kg BID oral) was 53.7 RLU × 10^6 and the “Intensity, Mean” value ([1]; 50 mg/kg BID oral) was 11.1 RLU × 10^6. The “Intensity, Rat 1” value ([1]; 50 mg/kg BID oral) was 3.2 RLU × 10^6, the “Intensity, Rat 2” value ([1]; 50 mg/kg BID oral) was 25.6 RLU × 10^6 and the “Intensity, Rat 3” value ([1]; 50 mg/kg BID oral) was 4.5 RLU × 10^6. The “Clinical Scores (0-8), Day 18 (mean)” value ([2]; 5 mg/kg BID group) was 8.00, the “Clinical Scores (0-8), Day 26 (mean)” value ([2]; 5 mg/kg BID) was 6.80 and the “Clinical Scores (0-8), Day 18 (mean)” value ([2]; 20 mg/kg BID group) was 8.00. The “Clinical Scores (0-8), Day 26 (mean)” value ([2]; 20 mg/kg BID) was 5.20, the “Clinical Scores (0-8), Day 18 (mean)” value ([2]; 50 mg/kg BID group) was 7.80 and the “Clinical Scores (0-8), Day 26 (mean)” value ([2]; 50 mg/kg BID) was 4.40.
